Measurements reported in patent US20170202808A1, “PHARMACEUTICAL DOSAGE FORMS” (Novartis AG, priority 2014, published 2017).

Key:
[1] = especially in its phosphate salt form
[2] = drug substance without excipients
[3] = especially in its phosphate salt form; remark: listed apart in the source
[4] = drug substance without MCC

N#Cc1ccc([C@H]2CCc3cncn32)c(F)c1 [compound of formula (1), 4-[(5R)-6,7-dihydro-5H-pyrrolo[1,2-c]imidazol-5-yl]-3-fluorobenzonitrile]
drug substance bulk density [1]: 0.1 to 0.3 g/mL
flowability, ffc (poorly flowable) [2]: 1.1
hygroscopicity [3]: hygroscopic
primary particle size [4]: ca. 4 micron
